Test results: patent US8815935B2, “Inhibitors of protein prenyltransferases” (The Regents of the University of California, priority 2008, dated 2014)

What was measured:
[1] = target: GGTase I (K-Ras4B as substrate) (Homo sapiens, UniProt P49354+P53609); experiment: GGTase I filter-binding assay, K-Ras4B as substrate (library screens); type: biochemical; conditions: compound 50 μM; DMSO = 100%; smaller = better inhibition; 50 µM
Experimental: (§1) The pilot library was screened for inhibitors of protein geranylgeranyltransferase type I. Protein prenyltransferase assays were carried out by using filter binding. Two different substrates, RhoA and K-Ras4B, were used for the assay. RhoA ends with the CaaL motif and is an exclusive substrate for GGTase I, while K-Ras4B ends with the CaaX motif and is modified by both GGTase I and FTase.
(§2) In the assay, a fixed concentration of 100 μM was used and the results are plotted for the inhibition of RhoA (vertical axis) as well as for K-Ras4B (horizontal axis). […] They are 2,6-diaryl-N-tosyl-1,2,5,6-tetrahydropyridine-3-carboxylic acids, except P2-D5 that is missing an aryl substituent at C2.
The % activity of GGTase I was determined as follows: a working solution that contained each compound in DMSO at the concentration of 1 mM was prepared. The working solution was added to GGTase I reaction mixture so that the final concentration of the compound is 50 μM. GGTase I activity was assayed by incubating [^3H]GGPP with K-Ras4B or RhoA protein in the presence of GGTase I and examining radioactivity incorporated into the substrate protein by spotting onto a filter paper. After washing with TCA, ethanol and acetone, the radioactivity retained on the filter was determined by the use of a scintillation counter. GGTase I activity in the presence of DMSO was taken as a 100% value and the activity in the presence of the compound was shown as percent activity compared with the 100% value. […] For 6-aryl-4-mercapto-N-sulfonyl-piperidine-3-carboxylic acid 11 the 4-mercapto substituent appeared critical to endowing GGTase inhibitory activity. […] 4-Chlorobenzylthio substituent was the next best; 12 compounds out of 21 containing the 4-chlorobenzylthio moiety were active. 4-Benzylthio substituent was also good; 7 piperidines out of 21 bearing 4-benzylthio group were active. […] 19 imines (C15>C12=C41>C40>C01=C11>C05=C10=C30=C35=C37=C38>C02, C03, C04, C06, C39=C43) out of 21 appeared in the GGTIs. […] This corresponds to 47 6-aryl-4-mercapto-N-sulfonyl-piperidine-3-carboxylic acids out of 357 compounds.
A collection of 138 heterocycles was screened for their ability to inhibit the activity of human GGTase-I to geranylgeranylate K-Ras4B or RhoA. Purified GGTase-I was incubated with its substrate protein K-Ras4B or RhoA, [^3H]GGPP, and the 138 compounds. After 30 min, the degree of incorporation of tritiated geranylgeranyl groups was measured using a scintillation counter.

[2] = target: GGTase I (RhoA as substrate) (Homo sapiens, UniProt P49354+P53609); experiment: GGTase I filter-binding assay, RhoA as substrate (library screens); type: biochemical; conditions: compound 50 μM, DMSO = 100%, smaller = better inhibition
Experimental: as §1, §2
The % activity of GGTase I was determined as follows: a working solution that contained each compound in DMSO at the concentration of 1 mM was prepared. The working solution was added to GGTase I reaction mixture so that the final concentration of the compound is 50 μM. GGTase I activity was assayed by incubating [^3H]GGPP with K-Ras4B or RhoA protein in the presence of GGTase I and examining radioactivity incorporated into the substrate protein by spotting onto a filter paper. After washing with TCA, ethanol and acetone, the radioactivity retained on the filter was determined by the use of a scintillation counter. GGTase I activity in the presence of DMSO was taken as a 100% value and the activity in the presence of the compound was shown as percent activity compared with the 100% value. […] For 6-aryl-4-mercapto-N-sulfonyl-piperidine-3-carboxylic acid 11 the 4-mercapto substituent appeared critical to endowing GGTase inhibitory activity. […] 4-Chlorobenzylthio substituent was the next best; 12 compounds out of 21 containing the 4-chlorobenzylthio moiety were active. […]
A collection of 138 heterocycles was screened for their ability to inhibit the activity of human GGTase-I to geranylgeranylate K-Ras4B or RhoA. […] After 30 min, the degree of incorporation of tritiated geranylgeranyl groups was measured using a scintillation counter.

Cc1ccccc1S(=O)(=O)N1C(c2ccc(Cl)cc2)CC=C(C(=O)O)[C@@H]1c1ccccc1 (some centres unmarked) [drawing 39]
% activity of GGTase I for K-Ras4B in the presence of the compound [1]: 15.6%
% activity of GGTase I for RhoA in the presence of the compound [2]: 12.4%
